Data as given in PubChem BioAssay (NCI).
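Five compound concentrations were applied to cells in 96-well plates for 48 hours; endpoints were derived by simple linear interpolation of the resulting dose-response curve. TGI is the concentration that stops growth completely.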

Columns and labels:
Experiment in all cases: NCI anticancer screen, dose series, 48 h
HOP-62 NSCLC = tested on: HOP-62 NSCLC
KM12 colon = tested on: KM12 colon
A498 renal = tested on: A498 renal
RXF 393 renal = tested on: RXF 393 renal
DU-145 prostate = tested on: DU-145 prostate
TK-10 renal = tested on: TK-10 renal
MOLT-4 leukemia = tested on: MOLT-4 leukemia
M14 melanoma = tested on: M14 melanoma
OVCAR-3 ovarian = tested on: OVCAR-3 ovarian
OVCAR-4 ovarian = tested on: OVCAR-4 ovarian
HCT-15 colon = tested on: HCT-15 colon
SF-295 CNS = tested on: SF-295 CNS
SK-MEL-28 melanoma = tested on: SK-MEL-28 melanoma
SK-MEL-5 melanoma = tested on: SK-MEL-5 melanoma
MDA-N = tested on: MDA-N
U251 CNS = tested on: U251 CNS
SW-620 colon = tested on: SW-620 colon
RPMI-8226 leukemia = tested on: RPMI-8226 leukemia
SNB-75 CNS = tested on: SNB-75 CNS
SF-539 CNS = tested on: SF-539 CNS
OVCAR-8 ovarian = tested on: OVCAR-8 ovarian
HCC-2998 colon = tested on: HCC-2998 colon
UACC-257 melanoma = tested on: UACC-257 melanoma
EKVX NSCLC = tested on: EKVX NSCLC
CAKI-1 renal = tested on: CAKI-1 renal
SR leukemia = tested on: SR leukemia
ACHN renal = tested on: ACHN renal
T-47D breast = tested on: T-47D breast
SNB-19 CNS = tested on: SNB-19 CNS
NCI-H23 lung = tested on: NCI-H23 lung
NCI-H460 lung = tested on: NCI-H460 lung
MDA-MB-231 breast = tested on: MDA-MB-231 breast
HOP-92 NSCLC = tested on: HOP-92 NSCLC
A549 NSCLC = tested on: A549 NSCLC
OVCAR-5 ovarian = tested on: OVCAR-5 ovarian
UO-31 renal = tested on: UO-31 renal
COLO 205 colon = tested on: COLO 205 colon
SK-OV-3 ovarian = tested on: SK-OV-3 ovarian
LOX IMVI melanoma = tested on: LOX IMVI melanoma
HT29 colon = tested on: HT29 colon
UACC-62 melanoma = tested on: UACC-62 melanoma
MCF7 breast = tested on: MCF7 breast
PC-3 prostate = tested on: PC-3 prostate
SF-268 CNS = tested on: SF-268 CNS
HS 578T breast = tested on: HS 578T breast
CCRF-CEM leukemia = tested on: CCRF-CEM leukemia
K-562 leukemia = tested on: K-562 leukemia
IGROV1 ovarian = tested on: IGROV1 ovarian
HL-60(TB) leukemia = tested on: HL-60(TB) leukemia
SK-MEL-2 melanoma = tested on: SK-MEL-2 melanoma
MDA-MB-435 = tested on: MDA-MB-435
NCI-H226 lung = tested on: NCI-H226 lung
NCI/ADR-RES ovarian = tested on: NCI/ADR-RES ovarian
HCT-116 colon = tested on: HCT-116 colon
BT-549 breast = tested on: BT-549 breast
786-0 renal = tested on: 786-0 renal

Measured: TGI

COCO[C@@H]1C[C@H]2C(O)Nc3ccccc3C(=O)N2C1 (stereo partly specified)
not listed: HCT-116 colon | BT-549 breast | 786-0 renal
> 100 µM: all other assays above

Cc1ccc(Cl)c2c(=O)c3ccc([N+](=O)[O-])cc3sc12
> 100 µM: HOP-62 NSCLC | KM12 colon | HCT-116 colon | DU-145 prostate | MOLT-4 leukemia | OVCAR-3 ovarian | HCT-15 colon | SF-295 CNS | SK-MEL-5 melanoma | MDA-N | RPMI-8226 leukemia | BT-549 breast | OVCAR-8 ovarian | UACC-257 melanoma | CAKI-1 renal | ACHN renal | SNB-19 CNS | NCI-H23 lung | A549 NSCLC | OVCAR-5 ovarian | UO-31 renal | COLO 205 colon | UACC-62 melanoma | MCF7 breast | PC-3 prostate | 786-0 renal | K-562 leukemia | SK-MEL-2 melanoma
